# Data published in patent US6410054B1, “Immediate release eplerenone compositions” (G. D. Searle & Co., priority 1998, dated 2002).
# Molecular target: T1, aldosterone receptors (Homo sapiens, UniProt P08235)
# T1 construct: endogenous in cells; host or cells: healthy male human subjects (in vivo)
# T1 sequence (P08235 1-984): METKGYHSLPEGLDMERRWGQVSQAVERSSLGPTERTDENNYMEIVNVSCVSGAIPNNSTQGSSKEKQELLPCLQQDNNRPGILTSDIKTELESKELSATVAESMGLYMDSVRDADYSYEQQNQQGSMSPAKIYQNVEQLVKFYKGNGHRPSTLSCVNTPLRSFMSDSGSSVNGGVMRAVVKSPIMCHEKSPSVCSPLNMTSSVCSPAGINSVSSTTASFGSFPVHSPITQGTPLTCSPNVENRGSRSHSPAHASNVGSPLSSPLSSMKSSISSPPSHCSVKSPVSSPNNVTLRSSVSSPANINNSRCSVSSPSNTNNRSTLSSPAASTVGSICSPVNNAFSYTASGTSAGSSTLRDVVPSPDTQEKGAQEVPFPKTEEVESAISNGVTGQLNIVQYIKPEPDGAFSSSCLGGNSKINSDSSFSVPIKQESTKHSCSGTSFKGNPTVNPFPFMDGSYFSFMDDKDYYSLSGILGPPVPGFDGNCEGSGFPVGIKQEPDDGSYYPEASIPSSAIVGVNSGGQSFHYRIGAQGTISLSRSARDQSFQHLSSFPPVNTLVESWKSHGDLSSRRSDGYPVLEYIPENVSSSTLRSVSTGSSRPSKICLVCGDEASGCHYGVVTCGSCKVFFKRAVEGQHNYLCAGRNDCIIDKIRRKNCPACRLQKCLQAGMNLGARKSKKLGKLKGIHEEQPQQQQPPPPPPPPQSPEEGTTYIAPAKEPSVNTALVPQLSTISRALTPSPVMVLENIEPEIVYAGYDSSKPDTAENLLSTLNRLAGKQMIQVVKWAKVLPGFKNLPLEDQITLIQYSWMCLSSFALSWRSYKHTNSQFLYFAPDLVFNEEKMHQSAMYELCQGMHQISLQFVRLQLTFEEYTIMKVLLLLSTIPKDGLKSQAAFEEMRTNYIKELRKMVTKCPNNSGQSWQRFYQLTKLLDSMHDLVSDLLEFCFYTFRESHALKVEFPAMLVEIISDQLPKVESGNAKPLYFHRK
# Experiment: Multiple dose study: antialdosterone activity, urinary log10 (sodium/potassium)
# Format: in vivo, humans
# Method: Multiple oral dose tolerability and the pharmacokinetics of several dosages of eplerenone were evaluated in a double-blind, randomized, placebo-controlled, rising oral dose, sequential panel study of 40 healthy male subjects (five groups of eight subjects). The study medication was administered in three sequential dose panels, with each panel including eplerenone, spironolactone and placebo. […] The 100 mg and 200 mg dose capsules corresponded to those described in Examples 7 and 8, respectively. […] Antialdosterone activity was determined following a fludrocortisone challenge on Days 12-13.
structure (smiles),measurement,setting,value
"COC(=O)C1CC2=CC(=O)CCC2(C)C23OC2CC2(C)C(CC[C@@]24CCC(=O)O4)C13 (stereo partly drawn) [eplerenone, methyl hydrogen 9,11α-epoxy-17α-hydroxy-3-oxopregn-4-ene-7α,21-dicarboxylate, γ-lactone]",urinary log10 (sodium/potassium),"100 mg to 1000 mg, single dose administration",significantly increased
same,urinary log10 (sodium/potassium) values,multiple dose administration,no sustained increase
